For one data set, the species on record is Homo sapiens. Briefly: Ratio of AUC for compound to omeprazolein human. Type of data set: ADME, organism-based. The settings on record: in vivo.
The test system of data set [1] is Liver microsome. Kind of data set: Drug metabolism in human liver microsomes assessed as dextrorphan formation measured as plasma fraction unbound. The class given is ADME, cell-free.
For data set [2], the system named is Liver microsome. Kind of data set: Drug metabolism in human liver microsomes assessed as dextrorphan formation measured as intrinsic clearance. Type of data set: ADME. A general note: Liver microsomes are vesicles of endoplasmic reticulum, rich in cytochrome P450 enzymes.
For data set [3], the system named is Liver microsome. Kind of data set: Drug metabolism in human liver microsomes assessed as dextrorphan formation measured as intrinsic unbound clearance. The class given is ADME.
For data set [4], the system named is Liver microsome. Briefly: Drug metabolism in human liver microsomes assessed as dextrorphan formation measured per mg of microsomal protein. The class given is ADME.
In data set [5] the test system is Liver microsome. Briefly: Drug metabolism in human liver microsomes assessed as dextrorphan formation measured as microsomal fraction unbound. Type of data set: ADME.
For data set [6], the system named is Liver microsome. Briefly: Drug metabolism in human liver microsomes assessed as dextrorphan formation. The class given is ADME.
Data set [7] concerns Liver microsome. Kind of data set: Drug metabolism in human liver metabolism assessed as omeprazole sulfone depletion measured as microsomal fraction unbound. The class given is ADME. Particulars: microsomes.
Data set [8] deals with Liver microsome. Kind of data set: Drug metabolism in human liver metabolism assessed as omeprazole sulfone formation measured as microsomal fraction unbound per mg of microsomal protein. Type of data set: ADME. Particulars: microsomes.
The test system of data set [9] is Liver microsome. Briefly: Drug metabolism in human liver metabolism assessed as omeprazole sulfone depletion measured as plasma fraction unbound. Type of data set: ADME, cell-free.
In data set [10] the test system is Liver microsome. Kind of data set: Drug metabolism in human liver metabolism assessed as omeprazole sulfone formation measured as intrinsic clearance per mg of microsomal protein. Particulars: microsomes. The class given is ADME.
In data set [11] the test system is Liver microsome. Briefly: Drug metabolism in human liver metabolism assessed as 5OH-omeprazole formation. The class given is ADME, tissue-based.
Data set [12] deals with Liver microsome. Briefly: Drug metabolism in human liver metabolism assessed as 5OH-omeprazole formation measured as plasma fraction unbound. Type of data set: ADME, cell-free.
Data set [13] has as its system Liver microsome. Briefly: Drug metabolism in human liver metabolism assessed as omeprazole sulfone formation. Type of data set: ADME, tissue-based.
The test system of data set [14] is Liver microsome. Briefly: Drug metabolism in human liver metabolism assessed as omeprazole sulfone formation measured per mg of microsomal protein. Type of data set: ADME. The settings on record: microsomes.
The subject of data set [15] is Liver microsome. Briefly: Drug metabolism in human liver metabolism assessed as omeprazole sulfone formation measured as intrinsic unbound clearance per mg of microsomal protein. Type of data set: ADME. The settings on record: microsomes.
Data set [16] deals with Liver microsome. Briefly: Drug metabolism in human liver metabolism assessed as 5OH-omeprazole formation measured as intrinsic unbound clearance per mg of microsomal protein. The class given is ADME. The settings on record: microsomes.
In data set [17] the test system is Liver microsome. Briefly: Drug metabolism in human liver metabolism assessed as 5OH-omeprazole formation measured as microsomal fraction unbound. The class given is ADME. Particulars: microsomes.
The subject of data set [18] is Liver microsome. Briefly: Drug metabolism in human liver metabolism assessed as omeprazole sulfone depletion measured as intrinsic clearance per mg of microsomal protein. The class given is ADME. Particulars: microsomes.
Data set [19] deals with Liver microsome. Kind of data set: Drug metabolism in human liver metabolism assessed as omeprazole sulfone depletion measured as intrinsic unbound clearance per mg of microsomal protein. The class given is ADME. Particulars: microsomes.
The subject of data set [20] is Liver microsome. Briefly: Drug metabolism in human liver metabolism assessed as 5OH-omeprazole formation measured as intrinsic clearance per mg of microsomal protein. The class given is ADME. The settings on record: microsomes.
Data set [21] relates to Hepatocyte. Briefly: Drug metabolism in human hepatocytes assessed as 5OH-omeprazole depletion measured per 10^6 cells as intrinsic unbound clearance. The class given is ADME, cell-based.
Data set [22] has as its system Hepatocyte. Kind of data set: Drug metabolism in human hepatocytes assessed as 5OH-omeprazole formation measured per 10^6 cells as intrinsic unbound clearance. Type of data set: ADME, cell-based.
Data set [23] has as its system Hepatocyte. Briefly: Drug metabolism in human hepatocytes assessed as omeprazole sulfone depletion measured per 10^6 cells as intrinsic unbound clearance. The class given is ADME, cell-based.
The test system of data set [24] is Liver microsome. Briefly: Drug metabolism in human liver metabolism assessed as 5OH-omeprazole formation measured per mg of microsomal protein. The settings on record: microsomes. Type of data set: ADME.
Data set [25] deals with Liver microsome. Kind of data set: Drug metabolism in human liver metabolism assessed as omeprazole sulfone formation measured as plasma fraction unbound. Type of data set: ADME, cell-free.
The subject of data set [26] is Hepatocyte. Kind of data set: Drug metabolism in human hepatocytes assessed as omeprazole sulfone formation measured per 10^6 cells as intrinsic unbound clearance. Type of data set: ADME, cell-based.

By Vmax is commonly meant the top rate of the reaction or transport when substrate is in excess. Usually Km stands for the substrate concentration at which the rate is half of its maximum.

Molecules are shown by their SMILES.

On to `COc1ccc2[nH]c([S+]([O-])Cc3ncc(CO)c(OC)c3C)nc2c1` (stereo not drawn), for which, in the data set listed under Homo sapiens, the “Ratio AUC” value is 0.48.
As for `COc1ccc2c(c1)[C@]13CCCC[C@@H]1[C@H](C2)N(C)CC3` [DEXTROMETHORPHAN], the Fu is 0.72 in the data set on Liver microsome [1] and 0.93 in the data set on Liver microsome [5]. Further, in the data set on Liver microsome [2], the CLH was determined as 13 µL/min/mg. In addition, in the data set on Liver microsome [3], the CL free was determined as 14 µL/min/mg. In addition, the maximum rate (Vmax) with Liver microsome [4] is 0.066 nmol/min. Also, the Km in the data set on Liver microsome [6] is 5 µM.
`COc1ccc2nc(S(=O)(=O)Cc3ncc(C)c(OC)c3C)[nH]c2c1` [OMEPRAZOLE SULFONE]: the “Ratio AUC” value in the data set filed under Homo sapiens was found to be 0.85.
`COc1ccc2[nH]c([S+]([O-])Cc3ncc(C)c(OC)c3C)nc2c1` (stereo not drawn) [OMEPRAZOLE]: the Fu in the data set on Liver microsome [7] was 0.92; in the data set with Liver microsome [8], 0.86; with Liver microsome [9] it was 0.0048; with Liver microsome [12] it was 0.061; in the data set on Liver microsome [17], 0.86; with Liver microsome [25], 0.061. Further, the CLint in the data set with Liver microsome [10] stood at 6.6 µL/min/mg; in the data set with Liver microsome [18], 32 µL/min/mg; in the data set with Liver microsome [20], 7.1 µL/min/mg. Also, the Km is 16 µM with Liver microsome [11] and 11 µM with Liver microsome [13]. The maximum rate (Vmax) in the data set with Liver microsome [14] amounted to 0.074 nmol/min/mg; with Liver microsome [24] it was 0.11 nmol/min/mg. The CL free with Liver microsome [15] is 7.7 µL/min/mg; in the data set on Liver microsome [16] it was 8.2 µL/min/mg; in the data set on Liver microsome [19], 35 µL/min/mg; with Hepatocyte [21], 100 uL/hr/10^6cells; in the data set on Hepatocyte [22] it was 55 uL/hr/10^6cells; in the data set with Hepatocyte [23] it was 48 uL/hr/10^6cells. Further, in the data set on Hepatocyte [26], the CL free stood at 3.6 uL/hr/10^6cells.

Values taken from ChEMBL document CHEMBL3526083, “Prediction of relative in vivo metabolite exposure from in vitro data using two model drugs: dextromethorphan and omeprazole” (Drug Metab Dispos, 2012).
